The term IC50 denotes the midpoint of a concentration-inhibition curve. What is called melting point is the temperature of the solid-liquid transition.

This note sets out measurements from patent publication US9371290B2, “Pyridazinone compounds” (BIOTIE THERAPIES CORPORATION, priority 2011, dated 2016).

Data set [1] has as its target T1, Recombinant human VAP-1 SSAO (Homo sapiens, UniProt Q16853).
T1 construct: made in house; host or cells: Chinese Hamster Ovary (CHO) cells; clarified NP40 cell lysate used directly
T1 sequence (Q16853 1-763): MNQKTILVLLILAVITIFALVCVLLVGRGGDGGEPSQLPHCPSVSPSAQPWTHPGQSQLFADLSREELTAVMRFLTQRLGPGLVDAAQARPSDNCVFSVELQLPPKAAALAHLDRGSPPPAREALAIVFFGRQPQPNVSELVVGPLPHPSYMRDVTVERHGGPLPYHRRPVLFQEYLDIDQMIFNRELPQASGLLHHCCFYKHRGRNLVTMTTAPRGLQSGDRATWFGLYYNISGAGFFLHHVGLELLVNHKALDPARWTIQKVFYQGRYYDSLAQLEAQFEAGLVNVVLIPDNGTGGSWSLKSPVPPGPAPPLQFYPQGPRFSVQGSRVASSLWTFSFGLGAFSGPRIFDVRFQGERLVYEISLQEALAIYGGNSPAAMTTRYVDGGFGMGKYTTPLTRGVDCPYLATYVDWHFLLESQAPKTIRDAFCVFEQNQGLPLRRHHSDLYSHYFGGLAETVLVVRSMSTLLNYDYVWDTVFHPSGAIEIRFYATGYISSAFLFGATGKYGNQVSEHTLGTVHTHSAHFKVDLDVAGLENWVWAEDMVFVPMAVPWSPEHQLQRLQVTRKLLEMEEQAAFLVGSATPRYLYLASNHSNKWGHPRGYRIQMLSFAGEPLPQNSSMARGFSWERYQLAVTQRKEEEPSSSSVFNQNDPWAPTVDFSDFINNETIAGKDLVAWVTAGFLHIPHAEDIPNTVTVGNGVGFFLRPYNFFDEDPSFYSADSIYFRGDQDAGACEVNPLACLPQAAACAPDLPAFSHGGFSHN
The data set is described as follows: In vitro inhibition of VAP-1 SSAO activity (coupled colorimetric method, benzylamine substrate). The class given is biochemical. Particulars: CHO cell lysate, 1 mM benzylamine, read-out: VAP-1 SSAO Inhibitory activity IC50. The procedure:
VAP-1 SSAO activity was measured using the coupled colorimetric method essentially as described for monoamine oxidase and related enzymes (Holt, A., et al., Anal. Biochem. 244:384-392 (1997)). Recombinant human VAP-1 SSAO expressed in Chinese Hamster Ovary (CHO) cells was used as a source of VAP-1 SSAO for activity measurements. Native CHO cells have negligible SSAO activity. These cells and their culture have previously been described (Smith, D. J., et al., J. Exp. Med. 188:17-27 (1998)). A cell lysate was prepared by suspending approximately 3.6×10^8 cells in 25 ml lysis buffer (150 mM NaCl, 10 mM Tris-Base pH 7.2, 1.5 mM MgCl2, 1% NP40) and incubating at 4° C. overnight on a rotating table. The lysate was clarified by centrifugation at 18 000 g for 5 min at room temperature and the supernatant used directly in the assay. The VAP-1 SSAO assay was performed in 96 well microtitre plates as follows. To each well was added a predetermined amount of inhibitor if required. The amount of inhibitor varied in each assay but was generally at a final concentration of between 1 nM and 50 μM. Controls lacked inhibitor. The inhibitor was in a total volume of 20 μl in water. The following reagents were then added. 0.2 M potassium phosphate buffer pH 7.6 to a total reaction volume of 200 μl, 50 μl of freshly made chromogenic solution containing 1 mM vanillic acid, 500 μM 4-aminoantipyrine and 8 U/ml horseradish peroxidase and an amount of CHO cell lysate containing VAP-1 SSAO that caused a change of 0.6 A490 per h. This was within the linear response range of the assay. The plates were incubated for 30 min at 37° C. and the background absorbance measured at 490 nm using a Wallac Victor II multilabel counter. To initiate the enzyme reaction 20 μl 10 mM benzylamine (final concentration=1 mM) was added and the plate incubated for 1 h at 37° C. The increase in absorbance, reflecting VAP-1 SSAO activity, was measured at 490 nm. Inhibition was presented as percent inhibition compared to control after correcting for background absorbance and IC50 values calculated using GraphPad Prism.

The test system of data set [2] is Total MAO. Kind of data set: Total rat MAO activity (rat liver mitochondrial preparation, tyramine substrate). The class given is biochemical. The procedure:
Rat MAO was prepared from rat liver by rinsing the 1 g liver sample several times in 14 ml KCl-EDTA-solution to remove all blood. Then 1 g liver sample was homogenized in 4 ml ice-cold potassium phosphate buffer (0.1 M, pH 7.4) with an Ultra-Turrax homogenizer (setting 11 000 rpm, 4×10 s). After centrifugation at 500 g for 10 min at 4° C. the supernatant was carefully withdrawn and was centrifuged at 12 300 g for 15 min at 4° C. The supernatant was discharged and sedimented mitochondria were resuspended in 4 ml fresh phosphate buffer and centrifuged as previously. The mitochondria were suspended in 4 ml phosphate buffer and homogenized with an Ultra-Turrax homogenizer (setting 11 000 rpm, 2×10 s). Mitochondrial preparate was aliquoted and stored at −70° C. Total MAO activity was measured in a similar way as for VAP-1 SSAO except that SSAO enzyme was replaced by MAO enzyme. To each well was added a predetermined amount of inhibitor if required. The amount of inhibitor varied in each assay but was generally at a final concentration of between 10 nM and 800 μM. Controls lacked inhibitor. The inhibitor was in a total volume of 20 μl in water. The following reagents were then added. 0.2 M potassium phosphate buffer pH 7.6 for a total reaction volume of 200 μl, 50 μl of freshly made chromogenic solution (as above) and 50 μl of MAO preparation (or needed amount of MAO). The plates were incubated for 30 min at 37° C. and the background absorbance measured at 490 nm using a Wallac Victor II multilabel counter. To initiate the enzyme reaction 20 μl of 5 mM tyramine (final concentration 0.5 mM) was added and the plate incubated for 1 h at 37° C. The increase in absorbance, reflecting MAO activity, was measured at 490 nm. Inhibition was presented as percent inhibition compared to control after correcting for background absorbance and IC50 values calculated using GraphPad Prism. Clorgyline and pargyline (inhibitors of MAO-A and -B respectively) at 0.5 μM were added to some wells as positive controls for MAO inhibition.

Molecule `COc1ccc(Oc2cc(=O)n(-c3ccccc3)nc2-c2nc[nH]n2)cc1` [Compound 14] had a melting point of 253 to 257 °C. The IC50 in data set [1] worked out at 370 nM. Also, in data set [2] (at 100 μM), the “Total MAO Inhibitory activity (%)” value turned out to be 0%.

For the molecule `O=c1cc(Sc2ccccc2)c(-c2nc[nH]n2)nn1-c1ccccc1` [Compound 16, 2-phenyl-5-phenylsulfanyl-6-(1H-1,2,4-triazol-3-yl)-3(2H)-pyridazinone], the melting point lay within 245 to 250 °C. The IC50 in data set [1] is 640 nM. Moreover, the “Total MAO Inhibitory activity (%)” value in data set [2] (at 100 μM) was 24%.

In the case of `Cn1cc(-c2nn(-c3ccccc3)c(=O)cc2Oc2ccccc2)cn1` [Compound 17, 6-(1-methyl-1H-pyrazol-4-yl)-5-phenoxy-2-phenylpyridazin-3(2H)-one], the melting point is 195 to 197 °C. Besides, in data set [1], the 50% inhibitory concentration (IC50) stood at 236000 nM. Further, the “Total MAO Inhibitory activity (%)” value in data set [2] (at 100 μM) came to 22%.

In turn, `O=c1cc(Oc2ccccc2)c(-c2ccc(F)cc2)nn1-c1ccccc1` [Compound 22] showed a melting point of 146 to 148 °C. Moreover, the IC50 in data set [1] is approximately 60000 nM. Besides, the “Total MAO Inhibitory activity (%)” value in data set [2] (at 100 μM) came to 0%.

Molecule `O=c1cc(Oc2ccccc2)c(-c2nc[nH]n2)nn1-c1ccc(Cl)cc1` [Compound 25] gave a melting point of 246 to 247 °C. For the same molecule, the IC50 in data set [1] was 350 nM. Besides, the “Total MAO Inhibitory activity (%)” value in data set [2] (at 100 μM) came to 0%.

Take `COc1cccc(-n2nc(-c3nc[nH]n3)c(Oc3ccccc3)cc2=O)c1` [Compound 27]: the melting point lay within 253 to 254 °C. Besides, the IC50 in data set [1] was 2000 nM. The “Total MAO Inhibitory activity (%)” value in data set [2] (at 100 μM) is reported as 3%.

For the molecule `CNc1cc(=O)n(-c2ccccc2)nc1-c1nc[nH]n1` [Compound 28], the melting point lay in the range of 245 to 247 °C. Moreover, the IC50 in data set [1] turned out to be 3600 nM. In addition, in data set [2] (at 100 μM), the “Total MAO Inhibitory activity (%)” value is on record as 10%.

For `CC(C)Nc1cc(=O)n(-c2ccccc2)nc1-c1nc[nH]n1` [Compound 29, 5-isopropylamino-2-phenyl-6-(1H-1,2,4-triazol-3-yl)-3(2H)-pyridazinone], the melting point was 203 to 205 °C. The IC50 in data set [1] came out at 270 nM. In addition, the “Total MAO Inhibitory activity (%)” value in data set [2] (at 100 μM) stood at 9%.

The molecule `O=c1cc(Oc2ccccc2)c(-c2nc[nH]n2)cn1-c1ccccc1` [Compound 34, 4-phenoxy-5-(1H-1,2,4-triazol-3-yl)-1-phenylpyridin-2(1H)-one] registered a melting point of 275 to 276 °C. For the same molecule, in data set [1], the IC50 came to 1600 nM. Besides, the “Total MAO Inhibitory activity (%)” value in data set [2] (at 100 μM) is 24%.

Consider `CCOc1cc(=O)n(-c2ccccc2)nc1-c1nc[nH]n1` [Compound 36], for which the melting point is 195 to 197 °C. For the same molecule, the 50% inhibitory concentration (IC50) in data set [1] came out at 16000 nM. Further, the “Total MAO Inhibitory activity (%)” value in data set [2] (at 100 μM) is reported as 3%.

In turn, `O=c1cc(NCc2ccccc2)c(-c2nc[nH]n2)nn1-c1ccccc1` [Compound 42, 5-benzylamino-2-phenyl-6-(1H-1,2,4-triazol-3-yl)-3(2H)-pyridazinone] yielded a melting point of 192 to 193 °C. Moreover, the half-maximal inhibitory concentration (IC50) in data set [1] is 720 nM. Besides, the “Total MAO Inhibitory activity (%)” value in data set [2] (at 100 μM) worked out at 2%.

Regarding `O=c1cc(NC2CCCCC2)c(-c2nc[nH]n2)nn1-c1ccccc1` [Compound 43, 5-cyclohexylamino-2-phenyl-6-(1H-1,2,4-triazol-3-yl)-3(2H)-pyridazinone], the IC50 in data set [1] worked out at 78 nM. The “Total MAO Inhibitory activity (%)” value in data set [2] (at 100 μM) was determined as 5%.

With `O=c1cc(Oc2ccccc2)c(-c2nc[nH]n2)nn1-c1cccc(F)c1` [Compound 46], the melting point fell in the range of 262 to 264 °C. In addition, the IC50 in data set [1] is 340 nM. Besides, the “Total MAO Inhibitory activity (%)” value in data set [2] (at 100 μM) was 9%.

In turn, `O=c1cc(Nc2cccnc2)c(-c2nc[nH]n2)nn1-c1ccccc1` [Compound 52] registered a melting point of 172 to 174 °C. Moreover, the IC50 in data set [1] is 3500 nM. For the same molecule, the “Total MAO Inhibitory activity (%)” value in data set [2] (at 100 μM) is listed as 9%.

The molecule `COc1ccc(Nc2cc(=O)n(-c3ccc(Cl)cc3)nc2-c2nc[nH]n2)cc1` [Compound 57, 2-(4-chlorophenyl)-5-[(4-methoxyphenyl)amino]-6-(1H-1,2,4-triazol-3-yl)-3(2H)-pyridazinone] displayed a melting point of 251 to 252 °C. Also, the IC50 in data set [1] turned out to be 44 nM. Besides, the “Total MAO Inhibitory activity (%)” value in data set [2] (at 100 μM) was found to be 5%.

In turn, `O=c1cc(Nc2ccc3c(c2)OCO3)c(-c2nc[nH]n2)nn1-c1ccc(Cl)cc1` [Compound 59, 2-(4-chlorophenyl)-5-[(3,4-methylenedioxyphenyl)amino]-6-(1H-1,2,4-triazol-3-yl)-3(2H)-pyridazinone] had a melting point of 270 to 273 °C. Besides, the IC50 in data set [1] turned out to be 80 nM. Also, in data set [2] (at 250 μM), the “Total MAO Inhibitory activity (%)” value worked out at 14%.

On to `COc1cc(Nc2cc(=O)n(-c3ccc(Cl)cc3)nc2-c2nc[nH]n2)cc(OC)c1OC` [Compound 61], for which the melting point was 238 to 241 °C. In addition, the IC50 in data set [1] was determined as 300 nM. Further, the “Total MAO Inhibitory activity (%)” value in data set [2] (at 250 μM) is 17%.

On to `O=c1cc(Nc2ccc(N3CCCCC3)cc2)c(-c2nc[nH]n2)nn1-c1ccc(Cl)cc1` [Compound 62], for which the melting point fell in the range of 240 to 242 °C. Besides, the 50% inhibitory concentration (IC50) in data set [1] stood at 280 nM. Besides, in data set [2] (at 250 μM), the “Total MAO Inhibitory activity (%)” value was found to be 21%.

The molecule `CN(C)c1ccc(Nc2cc(=O)n(-c3ccc(Cl)cc3)nc2-c2nc[nH]n2)cc1` [Compound 65] registered a melting point of 276 to 279 °C. For the same molecule, the IC50 in data set [1] was found to be 63 nM. Besides, the “Total MAO Inhibitory activity (%)” value in data set [2] (at 250 μM) is reported as 8%.

For the molecule `C=CCNc1cc(=O)n(-c2ccc(Cl)cc2)nc1-c1nc[nH]n1` [Compound 70], the melting point lay in the range of 212 to 215 °C. The IC50 in data set [1] is 140 nM. In data set [2] (at 50 μM), the “Total MAO Inhibitory activity (%)” value came out at 18%.

The molecule `O=c1cc(NCC2CC2)c(-c2nc[nH]n2)nn1-c1ccc(Cl)cc1` [Compound 71] registered a melting point of 255 to 257 °C. The IC50 in data set [1] was 170 nM. Besides, the “Total MAO Inhibitory activity (%)” value in data set [2] (at 50 μM) amounted to 16%.

On to `C=CCOc1cc(=O)n(-c2ccc(Cl)cc2)nc1-c1nc[nH]n1` [Compound 73], for which the melting point was in the range of 172 to 175 °C. Further, the IC50 in data set [1] was determined as 2200 nM. The “Total MAO Inhibitory activity (%)” value in data set [2] (at 50 μM) turned out to be 0%.
